Experimental data from publication PMC6988731 (Bioorganic & medicinal chemistry, 2011).

Molecular target: rat TRPV1 (Rattus norvegicus, UniProt O35433)
Experiment: competitive binding assay with [3H]RTX, rat TRPV1 expressed in CHO cells
Settings: rTRPV1/CHO; for fold less potent than parent 3: receptor activity (binding affinity and antagonism), relative to 3; for fold reduction in binding affinity and antagonism compared to 50: relative to 50

Chain of rat TRPV1 (O35433 whole entry): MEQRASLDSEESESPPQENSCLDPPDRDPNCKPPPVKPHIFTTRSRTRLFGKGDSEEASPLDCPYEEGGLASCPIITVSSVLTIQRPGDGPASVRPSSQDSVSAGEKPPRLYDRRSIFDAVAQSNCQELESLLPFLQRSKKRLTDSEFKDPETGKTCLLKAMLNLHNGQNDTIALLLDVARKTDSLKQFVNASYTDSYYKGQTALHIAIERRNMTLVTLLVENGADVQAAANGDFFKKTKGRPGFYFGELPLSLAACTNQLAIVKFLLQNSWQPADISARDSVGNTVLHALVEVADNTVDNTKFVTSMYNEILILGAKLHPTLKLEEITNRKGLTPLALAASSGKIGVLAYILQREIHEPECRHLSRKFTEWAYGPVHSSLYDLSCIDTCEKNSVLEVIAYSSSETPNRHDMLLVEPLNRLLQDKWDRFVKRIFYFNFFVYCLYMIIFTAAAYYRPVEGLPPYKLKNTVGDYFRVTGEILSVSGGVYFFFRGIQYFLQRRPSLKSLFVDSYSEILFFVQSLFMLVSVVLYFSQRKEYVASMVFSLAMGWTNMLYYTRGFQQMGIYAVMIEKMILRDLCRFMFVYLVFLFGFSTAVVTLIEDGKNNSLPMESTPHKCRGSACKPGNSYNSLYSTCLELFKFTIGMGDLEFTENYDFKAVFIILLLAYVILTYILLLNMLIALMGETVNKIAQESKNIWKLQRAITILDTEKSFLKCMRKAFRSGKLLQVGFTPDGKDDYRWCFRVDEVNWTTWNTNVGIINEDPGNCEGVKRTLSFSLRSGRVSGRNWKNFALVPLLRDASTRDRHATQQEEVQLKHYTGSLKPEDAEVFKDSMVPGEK

fold less potent than parent 3 | fold reduction in binding affinity and antagonism compared to 50 | SMILES
10 fold |  | CC(C(=O)NCc1ccc(I)cc1)c1ccc(NS(C)(=O)=O)c(F)c1 (stereo not shown) [compound 24, 2-(3-Fluoro-4-methanesulfonylamino-phenyl)-N-(4-iodo-benzyl)-propionamide]
ca. 10 fold |  | Cc1ccc(CCCNC(=O)C(C)c2ccc(NS(C)(=O)=O)c(F)c2)cc1C (stereo not shown) [compound 40, N-[3-(3,4-Dimethylphenyl)propyl]-2-[3-fluoro-4-(methylsulfonylamino)phenyl]propionamide]
 | 5–10 fold | CC(C(=O)NCC=C1c2ccccc2CCc2ccccc21)c1ccc(NS(C)(=O)=O)c(F)c1 (stereo not shown) [compound 59, N-[2-(10,11-Dihydro-5H-dibenzo[a,d]cyclohepten-5-yliden)ethyl]-2-[3-fluoro-4-(methylsulfonylamino)phenyl]propionamide]
 | 5–10 fold | CC(C(=O)NCC=C1c2ccccc2C=Cc2ccccc21)c1ccc(NS(C)(=O)=O)c(F)c1 (stereo not shown) [compound 60, N-[2-Dibenzo[a,d]cyclohepten-5-ylidene-ethyl]-2-(3-fluoro-4-methylsulfonylamino-phenyl)-propionamide]
